Assay results reported in paper PMC2664537 (Journal of medicinal chemistry, 2008).
Values belong to the compound of their own block, whether it stands above or below them.

Key:
[1] = solubility observed during assay preparation; assay type: physicochemical; settings: for solubility in buffer with 5% DMSO: after being dissolved in DMSO initially
[2] = target: rhodopsin in urea-washed rod outer-segment membranes (MII state, R*) (Bos taurus, UniProt P02699); assay: extra MII stabilization assay; assay type: biochemical, bovine
[3] = target: R*-Gt interaction (photoactivated rhodopsin / transducin) (Bos taurus, UniProt P02699); assay: R*-Gt binding and release assay; parameters: species or system bovine
Chain of R*-Gt interaction (photoactivated rhodopsin / transducin) (P02699 whole entry): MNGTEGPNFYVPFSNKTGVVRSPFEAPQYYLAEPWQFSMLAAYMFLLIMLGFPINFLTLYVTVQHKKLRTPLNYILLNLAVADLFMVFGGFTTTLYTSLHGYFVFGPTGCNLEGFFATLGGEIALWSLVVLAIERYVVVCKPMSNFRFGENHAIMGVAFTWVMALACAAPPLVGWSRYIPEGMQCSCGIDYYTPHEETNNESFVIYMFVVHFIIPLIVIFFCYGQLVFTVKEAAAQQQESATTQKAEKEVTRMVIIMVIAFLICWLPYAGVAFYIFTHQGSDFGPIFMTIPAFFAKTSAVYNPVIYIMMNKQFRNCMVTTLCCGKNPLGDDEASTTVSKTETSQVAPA

Chain of rhodopsin in urea-washed rod outer-segment membranes (MII state, R*) (P02699 whole entry): as above

solubility in buffer with 5% DMSO [1]: soluble
SMILES: C[C@H]1[C@H](C)CC[C@]2(C(=O)O)CC[C@]3(C)C(=CC[C@@H]4[C@@]5(C)C[C@@H](O)[C@H](O)[C@@](C)(CO)[C@@H]5[C@H](O)C[C@]43C)[C@H]12 [Compound 2, madecassic acid]

SMILES: C[C@]12CC[C@H]3[C@@H](CCC4=CC(=O)CC[C@@]43C)[C@@H]1CC[C@@H]2C(=O)COS(=O)(=O)c1ccc(Br)cc1 [Compound 3]
solubility in buffer with 3% DMSO/3% butanol ([1]; dissolved in DMSO/butanol solution, then buffer added): remained soluble

activity in extra MII assay using pure compound ([2]; pure compound): neither showed significant activity
SMILES: CC1(C)[C@@H](O)CC[C@]2(C)[C@H]3C(=O)C=C4[C@@H]5C[C@@](C)(C(=O)O)CC[C@]5(C)CC[C@@]4(C)[C@]3(C)CC[C@@H]12 [Compound 12]

EC50 [2]: 350 µM | solubility in buffer with 5% DMSO [1]: soluble | IC50 [3]: 2000 µM
SMILES: CC1(C)CC[C@]2(C(=O)O)CC[C@]3(C)C(=CC[C@@H]4[C@@]5(C)C[C@H](O)[C@H](O)[C@@](C)(C(=O)O)[C@@H]5CC[C@]43C)[C@@H]2C1 [Compound 16, medicagenic acid]
